The values below come from PubChem BioAssay AID1259407 (Chemical Carcinogenesis Research Information System (CCRIS), 2018).

The structures appear in SMILES notation. Active and inactive are the calls of the source. How the calls were made is not given here.

The subject of the data set is CCRIS mutagenicity, Ames/micronucleus/aberration tests. The data set can be described thus: CCRIS mutagenicity studies.
The mark [1] stands for this setting: Test System: AMES SALMONELLA TYPHIMURIUM, Strain/Indicator: TA98, Metabolic Activation: NONE, Method: PREINCUBATION
Setting [2] is: Test System: AMES SALMONELLA TYPHIMURIUM, Strain/Indicator: TA100, Metabolic Activation: NONE, Method: PREINCUBATION
The mark [3] stands for this setting: Test System: AMES SALMONELLA TYPHIMURIUM, Strain/Indicator: TA1535, Metabolic Activation: NONE, Method: PREINCUBATION

On to `Nc1ccccc1C(=O)OC1CCCCC1`, for which the mutagenic call (Test System: AMES SALMONELLA TYPHIMURIUM, Strain/Indicator: TA97, Metabolic Activation: HAMSTER, LIVER, S-9, AROCLOR 1254 (10%), Method: PREINCUBATION) was “inactive; negative”; the mutagenic call (Test System: AMES SALMONELLA TYPHIMURIUM, Strain/Indicator: TA97, Metabolic Activation: HAMSTER, LIVER, S-9, AROCLOR 1254 (30%), Method: PREINCUBATION) was “inactive; negative”; the mutagenic call (Test System: AMES SALMONELLA TYPHIMURIUM, Strain/Indicator: TA97, Metabolic Activation: NONE, Method: PREINCUBATION) is “inactive; negative”; the mutagenic call (Test System: AMES SALMONELLA TYPHIMURIUM, Strain/Indicator: TA97, Metabolic Activation: RAT, LIVER, S-9, AROCLOR 1254 (10%), Method: PREINCUBATION) is “inactive; negative”; the mutagenic call (Test System: AMES SALMONELLA TYPHIMURIUM, Strain/Indicator: TA97, Metabolic Activation: RAT, LIVER, S-9, AROCLOR 1254 (30%), Method: PREINCUBATION) is “inactive; negative”; the mutagenic call (Test System: AMES SALMONELLA TYPHIMURIUM, Strain/Indicator: TA98, Metabolic Activation: HAMSTER, LIVER, S-9, AROCLOR 1254 (10%), Method: PREINCUBATION) was “inactive; negative”. The mutagenic call runs as follows: (Test System: AMES SALMONELLA TYPHIMURIUM, Strain/Indicator: TA98, Metabolic Activation: HAMSTER, LIVER, S-9, AROCLOR 1254 (30%), Method: PREINCUBATION) “inactive; negative”; under setting [1], “inactive; negative”; (Test System: AMES SALMONELLA TYPHIMURIUM, Strain/Indicator: TA98, Metabolic Activation: RAT, LIVER, S-9, AROCLOR 1254 (10%), Method: PREINCUBATION) “inactive; negative”; (Test System: AMES SALMONELLA TYPHIMURIUM, Strain/Indicator: TA98, Metabolic Activation: RAT, LIVER, S-9, AROCLOR 1254 (30%), Method: PREINCUBATION) “inactive; negative”; (Test System: AMES SALMONELLA TYPHIMURIUM, Strain/Indicator: TA100, Metabolic Activation: HAMSTER, LIVER, S-9, AROCLOR 1254 (10%), Method: PREINCUBATION) “inactive; negative”; (Test System: AMES SALMONELLA TYPHIMURIUM, Strain/Indicator: TA100, Metabolic Activation: HAMSTER, LIVER, S-9, AROCLOR 1254 (30%), Method: PREINCUBATION) “inactive; negative”. Moreover, the mutagenic call by setting is: under setting [2], “inactive; negative”; (Test System: AMES SALMONELLA TYPHIMURIUM, Strain/Indicator: TA100, Metabolic Activation: RAT, LIVER, S-9, AROCLOR 1254 (10%), Method: PREINCUBATION) “inactive; negative”; (Test System: AMES SALMONELLA TYPHIMURIUM, Strain/Indicator: TA100, Metabolic Activation: RAT, LIVER, S-9, AROCLOR 1254 (30%), Method: PREINCUBATION) “inactive; negative”; (Test System: AMES SALMONELLA TYPHIMURIUM, Strain/Indicator: TA1535, Metabolic Activation: HAMSTER, LIVER, S-9, AROCLOR 1254 (10%), Method: PREINCUBATION) “inactive; negative”; (Test System: AMES SALMONELLA TYPHIMURIUM, Strain/Indicator: TA1535, Metabolic Activation: HAMSTER, LIVER, S-9, AROCLOR 1254 (30%), Method: PREINCUBATION) “inactive; negative”; under setting [3], “inactive; negative”. In addition, the mutagenic call was “inactive; negative” (Test System: AMES SALMONELLA TYPHIMURIUM, Strain/Indicator: TA1535, Metabolic Activation: RAT, LIVER, S-9, AROCLOR 1254 (10%), Method: PREINCUBATION) and “inactive; negative” (Test System: AMES SALMONELLA TYPHIMURIUM, Strain/Indicator: TA1535, Metabolic Activation: RAT, LIVER, S-9, AROCLOR 1254 (30%), Method: PREINCUBATION).

In the case of `CSC(=O)c1cccc2nnsc12`, the mutagenic call (End Point: In vivo micronucleus, Test System: Femoral bone marrow polychromatic erythrocytes, Species: Mouse, Strain/Sex: Female, Route: Gavage) is “inactive; negative; strain is not given by dpr reviewer” and the mutagenic call (End Point: In vivo micronucleus, Test System: Femoral bone marrow polychromatic erythrocytes, Species: Mouse, Strain/Sex: Male, Route: Gavage) was “inactive; negative; strain is not given by dpr reviewer”.

Consider `CC[C@H](C)[C@H]1O[C@]2(C=C[C@@H]1C)C[C@@H]1C[C@@H](C/C=C(\C)[C@@H](O[C@H]3C[C@H](OC)[C@@H](O[C@H]4C[C@H](OC)[C@@H](NC)[C@H](C)O4)[C@H](C)O3)[C@@H](C)/C=C/C=C3\CO[C@@H]4[C@H](O)C(C)=C[C@@H](C(=O)O1)[C@]34O)O2`, for which the mutagenic call (End Point: Ames Salmonella typhimurium, Test System: TA97a, Metabolic Activation: None) was “inactive; negative”; the mutagenic call (End Point: Ames Salmonella typhimurium, Test System: TA97a, Metabolic Activation: S-9) is “inactive; negative”; the mutagenic call (End Point: Ames Salmonella typhimurium, Test System: TA98, Metabolic Activation: None) was “inactive; negative”; the mutagenic call (End Point: Ames Salmonella typhimurium, Test System: TA98, Metabolic Activation: S-9) was “inactive; negative”; the mutagenic call (End Point: Ames Salmonella typhimurium, Test System: TA100, Metabolic Activation: None) was “inactive; negative”; the mutagenic call (End Point: Ames Salmonella typhimurium, Test System: TA100, Metabolic Activation: S-9) was “inactive; negative”. The mutagenic call is “inactive; negative” (End Point: Ames Salmonella typhimurium, Test System: TA1535, Metabolic Activation: None); “inactive; negative” (End Point: Ames Salmonella typhimurium, Test System: TA1535, Metabolic Activation: S-9); “inactive; negative” (End Point: E. coli, Test System: WP2, Metabolic Activation: None); “inactive; negative” (End Point: E. coli, Test System: WP2, Metabolic Activation: S-9); “inactive; negative” (End Point: E. coli, Test System: WP2uvrA pKM101, Metabolic Activation: None); “inactive; negative” (End Point: E. coli, Test System: WP2uvrA pKM101, Metabolic Activation: S-9). In addition, the mutagenic call is, setting by setting: (End Point: E. coli, Test System: WP2uvrA, Metabolic Activation: None) “inactive; negative”; (End Point: E. coli, Test System: WP2uvrA, Metabolic Activation: S-9) “inactive; negative”; (End Point: Gene mutation, Test System: Chinese hamster V79 lung fibroblasts, Metabolic Activation: None) “inactive; negative”; (End Point: Gene mutation, Test System: Chinese hamster V79 lung fibroblasts, Metabolic Activation: S-9) “inactive; negative”; (End Point: In vitro chromosomal aberrations, Test System: Chinese hamster ovary (CHO-WBL) cells, Metabolic Activation: None) “inactive; negative”; (End Point: In vitro chromosomal aberrations, Test System: Chinese hamster ovary (CHO-WBL) cells, Metabolic Activation: S-9) “inactive; negative”. Besides, the mutagenic call (End Point: In vivo chromosomal aberrations, Test System: Bone marrow cells, Species: Mouse, Route: Oral) is “inactive; negative”.

In the case of `C[C@H](CCC(=O)NCC(=O)O)[C@H]1CC[C@H]2[C@@H]3[C@@H](O)C[C@@H]4C[C@H](O)CC[C@]4(C)[C@H]3CC[C@]12C`, the mutagenic call (Test System: Ames Salmonella typhimurium, Strain/Indicator: TA98, Metabolic Activation: Rat, Liver, S-9, Aroclor 1254, Method: Plate incorporation) is “inactive; negative”.

Take `O=C(ON=C1C=CC(=NOC(=O)c2ccccc2)C=C1)c1ccccc1`: the mutagenic call is, setting by setting: (End Point: IN VITRO CHROMOSOMAL ABERRATIONS, Test System: CHL CELLS, Metabolic Activation: RAT, LIVER, S-9, SODIUM PHENOBARBITAL AND 5,6-BENZOFLAVONE) “inactive; negative”; under setting [1], “active; positive”; (Test System: AMES SALMONELLA TYPHIMURIUM, Strain/Indicator: TA98, Metabolic Activation: RAT LIVER S-9, PHENOBARBITAL AND BETA-NAPHTHOFLAVONE, Method: PREINCUBATION) “active; positive”; under setting [2], “inactive; negative”; (Test System: AMES SALMONELLA TYPHIMURIUM, Strain/Indicator: TA100, Metabolic Activation: RAT LIVER S-9, PHENOBARBITAL AND BETA-NAPHTHOFLAVONE, Method: PREINCUBATION) “active; positive”; under setting [3], “inactive; negative”. Further, the mutagenic call (Test System: AMES SALMONELLA TYPHIMURIUM, Strain/Indicator: TA1535, Metabolic Activation: RAT LIVER S-9, PHENOBARBITAL AND BETA-NAPHTHOFLAVONE, Method: PREINCUBATION) is “inactive; negative”; the mutagenic call (Test System: AMES SALMONELLA TYPHIMURIUM, Strain/Indicator: TA1537, Metabolic Activation: NONE, Method: PREINCUBATION) is “inactive; negative”; the mutagenic call (Test System: AMES SALMONELLA TYPHIMURIUM, Strain/Indicator: TA1537, Metabolic Activation: RAT LIVER S-9, PHENOBARBITAL AND BETA-NAPHTHOFLAVONE, Method: PREINCUBATION) was “active; positive”; the mutagenic call (Test System: AMES SALMONELLA TYPHIMURIUM, Strain/Indicator: TA1538, Metabolic Activation: NONE, Method: PREINCUBATION) was “active; positive”; the mutagenic call (Test System: AMES SALMONELLA TYPHIMURIUM, Strain/Indicator: TA1538, Metabolic Activation: RAT LIVER S-9, PHENOBARBITAL AND BETA-NAPHTHOFLAVONE, Method: PREINCUBATION) was “active; positive”; the mutagenic call (Test System: E.COLI, Strain/Indicator: WP2UVRA, Metabolic Activation: NONE, Method: PREINCUBATION) is “inactive; negative”. In addition, the mutagenic call (Test System: E.COLI, Strain/Indicator: WP2UVRA, Metabolic Activation: RAT LIVER S-9, PHENOBARBITAL AND BETA-NAPHTHOFLAVONE, Method: PREINCUBATION) was “inactive; negative”.
